According to patent US20080132569A1, “Antifungal Compositions for Inhibiting Growth of Wood Decay Fungi and Use Thereof” (priority 2006, published 2008):
≈ marks a conversion by molar mass, not a printed value. Where “and” joins values, the source holds several entries; their conditions need not be identical. Equal values may be shown once. Read-outs that look alike come from different tables or passages of the source. Marks after values point to notes of the source that are not given here. Values belong to the compound of their own block, whether it stands above or below them.

How the values were obtained:
[1] = Antifungal assay, mycelium growth on PDA containing the chemical; conditions: for Antifungal index: 50 μg/ml
[2] = as above
[3] = as above; conditions: G. trabeum; for Antifungal index (%): Table 1
[4] = as above; conditions: T. versicolor; for Antifungal index (%): Table 1
[5] = MIC and MFC determination on PDA; conditions: L. sulphureus
[6] = MIC and MFC determination on PDA; conditions: L. betulina
[7] = Antifungal activity on paper (CNS 2690, TAPPI T487 cm-93); conditions: C. globosum, 14 days
[8] = as above; conditions: A. terreus, 14 days
[9] = as above; conditions: A. niger, 14 days
[10] = L. betulina, 100 μg/ml, Table 1
[11] = L. sulphureus, 100 μg/ml, Table 1
[12] = L. betulina, 100 μg/ml, Table 4, mean ± SE (n = 5)
[13] = L. betulina, Table 5, mean ± SE (n = 5), combinations at 1:1 ratio in molarities
[14] = L. betulina, Table 5, mean ± SE (n = 5), combinations at 1:1 ratio in molarities, read-out: IC50
[15] = L. sulphureus, 100 μg/ml, Table 4, mean ± SE (n = 5)
[16] = L. sulphureus, Table 5, mean ± SE (n = 5), combinations at 1:1 ratio in molarities
[17] = L. sulphureus, Table 5, mean ± SE (n = 5), combinations at 1:1 ratio in molarities, read-out: IC50
[18] = L. sulphureus, single compound at 0.17 mM
[19] = Example 1, FIG. 1(A), read-out: IC50 (concentration that inhibited 50% of the mycelium growth)

Compound: Cc1cc(C(C)(C)C)c(O)c(C(C)(C)C)c1 [BHT, Butylated hydroxyltoluene, reference compound]
Antifungal index (%) [1, 10]: 16 ± 3.4%
Antifungal index (%) [2, 11]: 21 ± 5.6%
Antifungal index (%) ([3]; 100 μg/ml): 0 ± 0%
Antifungal index (%) ([4]; 100 μg/ml): 23 ± 2.6%

Compound: O=CC=Cc1ccccc1 [Cinnamaldehyde, cinnamaldehyde]
Antifungal index ([1]; L. betulina, Example 3, FIG. 2(A)): 6%
Antifungal index (%) [1, 10]: 100 ± 0%
Antifungal index (%) [1, 12]: 100% and 100 ± 0.0^a %
IC50 ([1]; L. betulina, Example 1, FIG. 1(A), read-out: IC50 (concentration that inhibited 50% of the mycelium growth)): 650 µM
IC90 [1, 13]: 720 ± 60 µM
IC50 [1, 14]: 650 µM
Antifungal index (%) [2, 11]: 100 ± 0%
Antifungal index (%) [2, 15]: 100% and 100 ± 0.0^a %
IC50 ([2]; L. sulphureus, Example 1, FIG. 1(A), read-out: IC50 (concentration that inhibited 50% of the mycelium growth)): 170 µM
IC90 [2, 16]: 530 ± 20 µM
IC50 [2, 17]: 230 µM
Antifungal index [2, 18]: 41%
MFC [5]: 700 µM (≈ 92.5 µg/mL)
MIC [5]: 700 µM (≈ 92.5 µg/mL)
MFC [6]: 750 µM (≈ 99.1 µg/mL)
MIC [6]: 750 µM (≈ 99.1 µg/mL)
Antifungal index ([3]; 50 μg/ml, Example 3, FIG. 2(B)): 22%
Antifungal index (%) ([3]; 100 μg/ml): 31 ± 0.7%
IC50 [3, 19]: 1050 µM
Antifungal index (%) ([4]; 100 μg/ml): 34 ± 2.2%
IC50 [4, 19]: 1110 µM

Compound: O=C(O)CN(CCN(CC(=O)O)CC(=O)O)CC(=O)O [EDTA, diaminoethanetetraacetic acid]
Antifungal index ([1]; Lenzites betulina, Example 5): 90%
Antifungal index ([2]; Laetiporus sulphureus, 50 μg/ml, Example 5): 10%

MIC [5]: 650 µM (≈ 107 µg/mL)
MIC [6]: 700 µM (≈ 115 µg/mL)
Compound: C=CCc1ccc(O)c(OC)c1 [Eugenol, eugenol]
Antifungal index (%) [1, 12]: 100 ± 0.0^a %
Antifungal index (%) ([1]; L. betulina, 100 μg/ml, Table 4, mean ± SE (n = 5), listed as eugenol): 100%
IC90 [1, 13]: 650 ± 50 µM
IC50 [1, 14]: 370 µM
Antifungal index (%) [2, 15]: 100 ± 0.0^a %
Antifungal index (%) ([2]; L. sulphureus, 100 μg/ml, Table 4, mean ± SE (n = 5), listed as eugenol): 100%
IC90 [2, 16]: 520 ± 10 µM
IC50 [2, 17]: 250 µM
Antifungal index [2, 18]: 24%
MFC [5]: 650 µM (≈ 107 µg/mL)
MFC [6]: 700 µM (≈ 115 µg/mL)

Compound: CCCC1COC(Cn2cncn2)(c2ccc(Cl)cc2Cl)O1 (stereo not drawn) [Propiconazole, propiconazole]
Antifungal index (%) ([1]; L. betulina, 1 μg/ml (propiconazole), Table 1): 100 ± 0%
Antifungal index (%) ([1]; L. betulina, 1 μg/ml (propiconazole), Table 1, listed as propiconazole): 100%
Antifungal index (%) ([1]; L. betulina, 1 μg/ml (propiconazole), Table 4, mean ± SE (n = 5)): 100 ± 0.0^a %
Antifungal index (%) ([1]; L. betulina, 1 μg/ml (propiconazole), Table 4, mean ± SE (n = 5), listed as propiconazole): completely inhibited
Antifungal index (%) ([2]; L. sulphureus, 1 μg/ml (propiconazole), Table 1): 100 ± 0%
Antifungal index (%) ([2]; L. sulphureus, 1 μg/ml (propiconazole), Table 1, listed as propiconazole): 100%
Antifungal index (%) ([2]; L. sulphureus, 1 μg/ml (propiconazole), Table 4, mean ± SE (n = 5)): 100 ± 0.0^a %
Antifungal index (%) ([2]; L. sulphureus, 1 μg/ml (propiconazole), Table 4, mean ± SE (n = 5), listed as propiconazole): completely inhibited
Antifungal index (%) ([3]; 1 μg/ml (propiconazole)): 52 ± 3.7%
Antifungal index (%) ([4]; 1 μg/ml (propiconazole)): 92 ± 0.6%

Compound: CCCOC(=O)c1cc(O)c(O)c(O)c1 [Propyl gallate, propyl gallate]
Percent inhibition ratio ([7]; 100 μg/cm^2 on filter paper): 0 ± 0%
Percent inhibition ratio ([7]; 100 μg/cm^2 on filter paper, listed as propyl gallate): did not show any antifungal activity
Percent inhibition ratio ([7]; 400 μg/cm^2 on filter paper): 100 ± 0%
Percent inhibition ratio ([7]; 400 μg/cm^2 on filter paper, listed as propyl gallate): 100%
Percent inhibition ratio ([8]; 100 μg/cm^2 on filter paper): 0 ± 0%
Percent inhibition ratio ([8]; 400 μg/cm^2 on filter paper): 0 ± 0%
Antifungal index (%) [1, 10]: 1 ± 1.9%
Antifungal index (%) [2, 11]: 0 ± 0%
Percent inhibition ratio ([9]; 100 μg/cm^2 on filter paper): 0 ± 0%
Percent inhibition ratio ([9]; 400 μg/cm^2 on filter paper): 0 ± 0%
Antifungal index (%) ([3]; 100 μg/ml): 2 ± 0.6%
Antifungal index (%) ([4]; 100 μg/ml): 0 ± 0%

Compound: O=c1c(O)c(-c2ccc(O)c(O)c2)oc2cc(O)cc(O)c12 [Quercetin, quercetin]
Antifungal index (%) [1, 12]: 0 ± 0.0^b %
Antifungal index (%) ([1]; L. betulina, 100 μg/ml, Table 4, mean ± SE (n = 5), listed as quercetin): did not express antifungal activities
IC90 [1, 13]: > 100000 µM
IC50 [1, 14]: > 100000 µM
Antifungal index (%) [2, 15]: 0 ± 0.0^c %
Antifungal index (%) ([2]; L. sulphureus, 100 μg/ml, Table 4, mean ± SE (n = 5), listed as quercetin): did not express antifungal activities
IC90 [2, 16]: > 100000 µM
IC50 [2, 17]: 64000 ± 250 µM

Compound: catechin
Antifungal index (%) [1, 12]: 3 ± 1.5^b %
Antifungal index (%) ([1]; L. betulina, 100 μg/ml, Table 4, mean ± SE (n = 5), listed as catechin): did not express antifungal activities
IC90 [1, 13]: > 100000 µM
IC50 [1, 14]: > 100000 µM
Antifungal index (%) [2, 15]: 5 ± 1.8^b %
Antifungal index (%) ([2]; L. sulphureus, 100 μg/ml, Table 4, mean ± SE (n = 5), listed as catechin): did not express antifungal activities
IC90 [2, 16]: 80000 ± 140 µM
IC50 [2, 17]: 40000 ± 120 µM
